The results in this text go back to US8101760B2, “Glucocorticoid receptor modulator and methods of use” (Eli Lilly and Company, priority 2007, dated 2012).

Structures are written as SMILES. Where only a bound is given, the exact number is not on record here.

The target in data set [1] is T1, human MR (mineralocorticoid receptor) (Homo sapiens, UniProt P08235).
T1 construct: expressed in transfected cells; host or cells: HEK293 (lysate, '293-MR lysate')
T1 sequence (P08235 1-984): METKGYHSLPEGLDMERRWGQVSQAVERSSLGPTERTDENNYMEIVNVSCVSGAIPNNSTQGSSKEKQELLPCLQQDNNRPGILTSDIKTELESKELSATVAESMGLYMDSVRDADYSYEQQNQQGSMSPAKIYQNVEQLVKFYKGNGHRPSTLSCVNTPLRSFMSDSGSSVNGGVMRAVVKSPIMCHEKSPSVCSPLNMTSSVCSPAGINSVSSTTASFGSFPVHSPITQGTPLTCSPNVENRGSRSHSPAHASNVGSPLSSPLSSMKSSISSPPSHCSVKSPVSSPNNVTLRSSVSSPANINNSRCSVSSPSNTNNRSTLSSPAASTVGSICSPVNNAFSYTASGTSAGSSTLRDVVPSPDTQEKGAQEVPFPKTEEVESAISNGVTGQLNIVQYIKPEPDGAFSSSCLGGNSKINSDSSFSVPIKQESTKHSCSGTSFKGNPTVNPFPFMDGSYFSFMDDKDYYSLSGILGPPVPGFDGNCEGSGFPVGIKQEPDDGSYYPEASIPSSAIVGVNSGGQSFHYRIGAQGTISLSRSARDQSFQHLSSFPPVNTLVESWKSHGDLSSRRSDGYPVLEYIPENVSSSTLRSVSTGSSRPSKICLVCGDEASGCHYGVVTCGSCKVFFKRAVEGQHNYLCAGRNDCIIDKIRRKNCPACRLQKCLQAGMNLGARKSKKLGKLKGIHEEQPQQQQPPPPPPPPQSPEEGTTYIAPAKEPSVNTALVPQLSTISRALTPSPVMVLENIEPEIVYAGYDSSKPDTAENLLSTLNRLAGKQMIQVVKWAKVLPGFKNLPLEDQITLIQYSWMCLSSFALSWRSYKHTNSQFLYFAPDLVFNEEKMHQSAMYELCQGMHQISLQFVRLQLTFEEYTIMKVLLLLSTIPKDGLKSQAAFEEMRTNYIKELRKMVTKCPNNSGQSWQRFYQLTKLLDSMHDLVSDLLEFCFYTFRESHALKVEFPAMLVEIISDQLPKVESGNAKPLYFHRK
Description: Nuclear hormone receptor binding assay, MR. The protocol: Cell lysates from human embryonic kidney HEK293 cells overexpressing human GR (glucocorticoid receptor), AR (androgen receptor), MR (mineralocorticoid receptor), or PR (progesterone receptor) are used for receptor-ligand competition binding assays to determine Ki values.
Briefly, steroid receptor competition binding assays are run in a buffer containing 20 mM Hepes buffer (pH=7.6), 0.2 mM EDTA, 75 mM NaCl, 1.5 mM MgCl2, 20% glycerol, 20 mM sodium molybdate, 0.2 mM DTT (dithiothreitol), 20 μg/mL aprotinin and 20 μg/mL leupeptin. Typically, steroid receptor binding assays include radio-labeled ligands, such as 0.3 nM [^3H]-dexamethasone for GR binding, 0.36 nM [^3H]-methyltrienolone for AR binding, 0.25 nM [^3H]-aldosterone for MR binding, and 0.29 nM [^3H]-methyltrienolone for PR binding, and either 20 μg 293-GR lysate, 22 μg 293-AR lysate, 20 μg 293-MR lysate or 40 μg 293-PR lysate per well. Assays are typically run in 96-well format. Competing test compounds are added at various concentrations ranging from about 0.01 nM to 10 μM. Non-specific binding is determined in the presence of 500 nM dexamethasone for GR binding, 500 nM aldosterone for MR binding, or 500 nM methyltrienolone for AR and PR binding. […] After an incubation of 2 hours, plates are read in a Wallac Microbeta counter. […]

Data set [2] is described as follows: Hygroscopicity and solid-state stability. The data set is classed as physicochemical.

What is called Ki is a measure of affinity in units of concentration, obtained from inhibition or displacement. Read a low Ki as a stronger hold on the target. On to `CC/C(=C1\c2ccc(Cl)cc2OCc2ncccc21)c1cccc(NS(C)(=O)=O)c1` [Compound (I), (E)-N-{3-[1-(8-Chloro-11H-10-oxa-1-aza-dibenzo[a,d]cyclohepten-5-ylidene)-propyl]-phenyl}-methanesulfonamide], for which the inhibition constant (Ki) in data set [1] (HEK293 cell lysate expressing human MR, [3H]-aldosterone, mean of 5 determinations) was 117 nM. Moreover, in data set [1] (binding selectivity GR vs MR), the “greater affinity for GR relative to MR” value is listed as at least 30 fold. Besides, the hygroscopicity entry in data set [2] was “non-hygroscopic”. In addition, in data set [2] (increased temperature, relative humidity, and light exposure), the stability entry is listed as “stable”.
